Reference: patent publication US20140287931A1, “METHODS AND COMPOSITIONS FOR PREDICTING RESISTANCE TO ANTICANCER TREATMENT” (Stichting het Nederlands Kanker Instituut - Antoni van …, priority 2011, published 2014)
“Also recorded” adds a separate entry of the source. Read-outs that look alike come from different tables or passages of the source.

Legend:
[1] = system: BT474 breast cancer cells; assay: Colony formation assay in BT474 cells with ARID1A knockdown; format: cell-based, human; conditions: 25 nM AZD8055 or 2 ug/ml trastuzumab, 4 weeks
Source text: The cells were fixed, stained and photographed after 2 weeks (untreated) or 4 weeks (inhibitor treatment).

[2] = system: PI3K pathway members (p473-AKT, p235/236-S6RP); assay: Immunoblot of PI3K pathway members in BT474 cells; format: cell-based, human; conditions: BT474 expressing three independent shARID1A vectors versus shctrl; increasing amounts of AZD8055, three hours
Experimental: BT474 cells stably expressing either shctrl, shTSC2 or three independent shARID1A vectors were exposed to increasing amounts of the mTOR inhibitor AZD8055. After three hours, cell lysates were prepared and PI3K pathway members were immunoblotted.

MCF7 breast cancer cells = assay: Colony formation assay in MCF7 cells with ARID1A knockdown; format: cell-based; conditions: 20 and 40 nM AZD8055, 4 weeks
Experimental: (§1) (B) Validation of independent shRNAs (in pLKO vector) targeting ARID1A in T47D breast cancer cells. TIhe functional phenotypes of non-overlapping shARID1A vectors are indicated by the colony formation assay in 10 and 20 nM small molecule mTOR inhibitor AZD8055. The cells were fixed, stained and photographed after 2 weeks (untreated) or 4 weeks (inhibitor treatment). Ectopic expression of a mutant of cyclin DI (pBpDITA) served as a control in the experiment. (C) Validation of independent shRNAs (in pLKO vector) targeting ARID1A in MCF7 breast cancer cells. The functional phenotypes of non-overlapping shARIDJA vectors are indicated by the colony formation assay in 20 and 40 nM small molecule mTOR inhibitor AZD8055. The cells were fixed, stained and photographed after 2 weeks (untreated) or 4 weeks (inhibitor treatment). (D). Quantification of ARID1A mRNA levels by QRT-PCR after knockdown of ARID1A in MCF7 breast cancer cells.

T47D breast cancer cells = assay: Colony formation assay in T47D cells with ARID1A knockdown; format: cell-based; conditions: 10 and 20 nM AZD8055, 4 weeks
Experimental: as §1

phospho-AKT = assay: Western blotting of phospho-AKT in H3122 cells; format: cell-based, human; conditions: H3122 shSMARCE1 cells versus controls; 20 nM NVP-TAE684, 24 hours
Experimental: (B) SMARCE1^KD cells have elevated phospho-AKT levels in EML4-ALK cells. H3122 cells expressing controls (pRS or shGFP) or shSMARCE1 vectors were gown in the absence or presence of 20 nM NVP-TAE684 for 24 hours and the cell lysates were harvested for western blotting analysis. (C) MED12^KD cells have elevated phospho-AKT levels in EGFR mutant cells. PC9 cells expressing controls (pRS or shGFP) or shSMARCE1 vectors were gown in the absence or presence of 25 nM Gefitinib for 8 hours and the cell lysates were harvested for western blotting analysis.
Given that loss of MED2 or SMARCE1 causes resistance to multiple tyrosine kinase inhibitors in NSCLC cell lines, Applicants asked whether the activity of downstream components of receptor tyrosine kinase signaling is altered. AKT is a key downstream component and its phosphorylation status positively correlates with its activation that can be determined by specific antibodies against the phosphorylated form of AKT. 1-13122 cells were infected with two independent controls shRNA vectors or shRNAs targeting either MED12 or SMARCE1 and confirmed loss of MED112 or SMARCE1 protein by immunoblotting (FIGS. 15A and B). The cells were also treated of left untreated with the ALK inhibitor NVP-TAE684, to address the activation status of AKT in the presence or absence of the inhibitor. […]

[3] = system: human NSCLC cell lines that harbor EML4-ALK translocations; conditions: cited from earlier work
H3122 cells = assay: Colony formation assay in H3122 cells with or without shRNA knockdown; format: cell-based, human; conditions: for sensitivity to ALK inhibitors after restoration of Med12: H3122 MED12 knockdown cells (shMED12_TRC#3, #5) plus mouse Med12 cDNA; for sensitivity to ALK inhibitors after restoration of Med12 / sensitivity to ALK inhibitors after restoration of SMARCE1: 300 nM Crizotinib or 2.5 nM NVP-TAE684; for sensitivity to ALK inhibitors after restoration of SMARCE1: H3122 SMARCE1 knockdown cells plus SMARCE1-ND; for resistance to ALK inhibitors on suppression of ARID1A or SMARCE1, colony formation: H3122 expressing independent shARID1A or shSMARCE1 vectors; for resistance to ALK inhibitors on suppression of ARID1A or SMARCE1, colony formation / resistance to ALK inhibitors on suppression of MED12, colony formation / resistance to ALK inhibitors, colony formation: 300 nM Crizotinib or 2.5 nM NVP-TAE684, 4 weeks; for resistance to ALK inhibitors on suppression of MED12, colony formation: H3122 expressing independent shMED12 vectors (pRS #3; pLKO TRC#2, #3, #5); for resistance to ALK inhibitors, colony formation: H3122 expressing library shMED12#1, shMED12#2, shARID1A or shSMARCE1
[4] = system: HCC 1954 breast cancer cells; assay: shRNA bar code screen in HCC 1954 breast cancer cells; format: cell-based
[5] = system: SKBR3 breast cancer cells; assay: shRNA bar code screen in SKBR3 breast cancer cells; format: cell-based
[6] = system: H1993 (MET-amplified) cells; conditions: 200 nM Crizotinib; for sensitivity to MET inhibitor after restoration of SMARCE1: H1993 SMARCE1-knockdown cells plus SMARCE1-ND; for resistance to MET inhibitor on suppression of ARID1A: H1993 expressing shARID1A #1 and #2, 4 weeks
[7] = system: EBC-1 (MET-amplified) cells; conditions: 200 nM Crizotinib; for sensitivity to MET inhibitor after restoration of SMARCE1: EBC-1 SMARCE1-knockdown cells plus SMARCE1-ND
Experimental: (§2) Single cell suspensions of the lung cancer cell lines were seeded into 6-well plates (2×10^4 cells/well) and cultured both in the absence and presence of the ALK inhibitors. At the endpoints of colony formation assays, cells were fixed with formaldehyde, stained with crystal violet (0,1% w/v) and photographed. All relevant assays were performed independently at least three times. All knockdown and overexpression experiments were done by retroviral or lentiviral infections.
(§3) Subclones of each NSCLC cell line expressing the murine ecotropic receptor were generated and used for all experiments shown. Retroviral infections were performed using Phoenix cells as producers of retroviral supernatants using 2.5-3 μg of plasmid DNA as described (http://www(dot)stanford(dot)edu/group/nolan/retroviralsystems/phx(dot)html). […] For transfections of Phoenix cells, Applicants seeded 1.0×10^6 cells in a 6-well dish in the morning and transfected the cells 6-8 hours later. Cells were refreshed the next day in the morning and afternoon. Viral supernatant was harvested the day thereafter for infections of the target cells. […] Infected NSCLC cells were selected for successful retroviral integration using 2 μg/ml of puromycin.

[8] = system: PC9 cells (EGFRdelE746-A750); format: cell-based, human
Experimental: as §2, §3

DAB2IP mRNA = assay: DAB2IP knockdown by qRT-PCR in PC9 cells; format: cell-based, human
Experimental: QRT-PCR assays were carried out to measure mRNA levels of genes using 7500 Fast Real-Time PCR System (Applied Biosystems). Total RNA was isolated using Trizol (Invitrogen) and 1 μg of total RNA was used for cDNA synthesis using superscrpipt 11 reverse transcriptase (Invitrogen) and random hexamer primers (Invitrogen). Relative mRNA levels of each gene shown were normalized to the expression of the house keeping gene GAPDH. The sequences of the primers for assays using SYBR® Green master mix (Roche) are listed below (h, human: m, mouse).

In the case of `COc1ccc(-c2ccc3c(N4CCOC[C@@H]4C)nc(N4CCOC[C@@H]4C)nc3n2)cc1CO` [AZD8055], the “resistance on knockdown of ARID1A, colony formation” value [1] is reported as “conferred resistance”, the “phosphorylated AKT (p473-AKT) levels in the presence of inhibitor” value [2] is reported as “maintained higher levels” and the “phosphorylated S6RP (p235/236-S6RP) levels in the presence of inhibitor” value [2] is reported as “maintained higher levels”. For the same molecule, the “resistance on suppression of ARID1A, colony formation” value (MCF7 breast cancer cells) was “conferred resistance; also recorded: confers resistance” and the “resistance on suppression of ARID1A, colony formation” value (T47D breast cancer cells) was “conferred resistance; also recorded: confers resistance”.
For `COc1cc(N2CCC(N3CCN(C)CC3)CC2)ccc1Nc1ncc(Cl)c(Nc2ccccc2S(=O)(=O)C(C)C)n1` [NVP-TAE684], the “phosphorylated AKT levels in the presence of inhibitor” value (phospho-AKT) is given as “maintained higher levels”, the “inhibition of EML4-ALK NSCLC cell lines” value [3] is given as “potently inhibit” and the “sensitivity to ALK inhibitors after restoration of Med12” value (H3122 cells) is given as “re-sensitizes”. The “sensitivity to ALK inhibitors after restoration of SMARCE1” value (H3122 cells) was “re-sensitizes”, the “resistance to ALK inhibitors on suppression of ARID1A or SMARCE1, colony formation” value (H3122 cells) was “confers drug resistance” and the “resistance to ALK inhibitors on suppression of MED12, colony formation” value (H3122 cells) was “confers drug resistance”. For the same molecule, the “resistance to ALK inhibitors, colony formation” value (H3122 cells) was “confer resistance”.
In the case of `Cn1c(=O)n(-c2ccc(C(C)(C)C#N)cc2)c2c3cc(-c4cnc5ccccc5c4)ccc3ncc21` [NVPBEZ235], the “resistance on knockdown of ARID1A” value [4] is reported as “conferred resistance”.
In the case of `Oc1cccc(-c2nc(N3CCOCC3)c3oc4ncccc4c3n2)c1` [PI-103], the “resistance on knockdown of ARID1A (SMARCF1)” value [5] is reported as “conferred resistance”.
In the case of `C[C@@H](Oc1cc(-c2cnn(C3CCNCC3)c2)cnc1N)c1c(Cl)ccc(F)c1Cl` [crizotinib], the “sensitivity to MET inhibitor after restoration of SMARCE1” value (from here on “sensitivity to MET inhibitor”) [6] is reported as “restored the sensitivity”, the “sensitivity to MET inhibitor” value ([6]; listed as Crizotinib) is reported as “re-sensitizes” and the “resistance to MET inhibitor on suppression of ARID1A” value [6] is reported as “conferred resistance”. The “resistance to MET inhibitor on suppression of ARID1A” value ([6]; listed as Crizotinib) was “are resistance”, the “resistance to MET inhibitor on suppression of SMARCE1” value ([6]; H1993 expressing shSMARCE1#1 and #2) was “conferred resistance” and the “sensitivity to MET inhibitor” value [7] was “restored the sensitivity”. The “sensitivity to MET inhibitor” value ([7]; listed as Crizotinib) was “re-sensitizes”, the “resistance to MET inhibitor on suppression of SMARCE1” value ([7]; EBC-1 expressing shSMARCE1#1 and #2) was “conferred resistance” and the “sensitivity to ALK inhibitors after restoration of Med12” value (H3122 cells) was “re-sensitizes”. For the same molecule, the “sensitivity to ALK inhibitors after restoration of SMARCE1” value (H3122 cells) was “re-sensitizes”, the “resistance to ALK inhibitors on suppression of ARID1A or SMARCE1, colony formation” value (H3122 cells) was “confers drug resistance” and the “resistance to ALK inhibitors on suppression of MED12, colony formation” value (H3122 cells) was “confers drug resistance”. For the same molecule, the “resistance to ALK inhibitors, colony formation” value (H3122 cells) was “confer resistance”.
In the case of “shDAB2IP#2: lentiviral pLKO shRNA vector from the TRC library targeting DAB2IP, sequence GACTCCAAACAGAAGATCATT (pLKO lentiviral vector)”, the “toxicity of shRNA vector” value [8] is reported as “exhibited toxicity”.
For “shDAB2IP#5: lentiviral pLKO shRNA vector from the TRC library targeting DAB2IP, sequence GCACATCACTAACCACTACCT (pLKO lentiviral vector)”, the “knockdown of DAB2IP” value (DAB2IP mRNA) was “failed to induce a knockdown”.
